Blank lines part the entries; values can stand above or below the compound they belong to.
Experiments:
Assay in all cases: KINOMEscan competition binding
ACVR1 (human) = ACVR1 (human) (UniProt Q04771); conditions: compound 10.0 µM
ACVR2A (human) = ACVR2A (human) (UniProt P27037); conditions: compound 10.0 µM
ACVR2B (human) = ACVR2B (human) (UniProt Q13705); conditions: compound 10.0 µM
AURKC (human) = AURKC (human) (UniProt Q9UQB9); conditions: compound 10.0 µM
BMPR1B (human) = BMPR1B (human) (UniProt O00238); conditions: compound 10.0 µM
CAMKK1 (human) = CAMKK1 (human) (UniProt Q8N5S9); conditions: compound 10.0 µM
CDK16 (human) = CDK16 (human) (UniProt Q00536); conditions: compound 10.0 µM
CHUK (human) = CHUK (human) (UniProt O15111); conditions: compound 10.0 µM
CLK3 (human) = CLK3 (human) (UniProt P49761); conditions: compound 10.0 µM
CSNK1G1 (human) = CSNK1G1 (human) (UniProt Q9HCP0); conditions: compound 10.0 µM
CSNK1G3 (human) = CSNK1G3 (human) (UniProt Q9Y6M4); conditions: compound 10.0 µM
DAPK1 (human) = DAPK1 (human) (UniProt P53355); conditions: for kinase still bound, per cent of control: compound 10.0 µM
DCLK3 (human) = DCLK3 (human) (UniProt Q9C098); conditions: compound 10.0 µM
[1] = tested on: EIF2AK4 KD2 (human), Q9P2K8 [S808G]; conditions: compound 10.0 µM
FLT3 (human) = FLT3 (human) (UniProt P36888); conditions: compound 10.0 µM
[2] = tested on: FLT3 (human), P36888 [D835H]; conditions: compound 10.0 µM
[3] = tested on: FLT3 (human), P36888 [K663Q]; conditions: compound 10.0 µM
[4] = tested on: FLT3 (human), P36888 [N841I]; conditions: compound 10.0 µM
[5] = target: JAK1 JH2 pseudokinase (human) (UniProt P23458); conditions: compound 10.0 µM
[6] = target: JAK3 JH1 catalytic (human) (UniProt P52333); conditions: compound 10.0 µM
KIT (human) = KIT (human) (UniProt P10721); conditions: compound 10.0 µM
[7] = tested on: KIT (human), P10721 [V559D]; conditions: compound 10.0 µM
MAP2K4 (human) = MAP2K4 (human) (UniProt P45985); conditions: compound 10.0 µM
MAP3K5 (human) = MAP3K5 (human) (UniProt Q99683); conditions: compound 10.0 µM
MAP4K4 (human) = MAP4K4 (human) (UniProt O95819); conditions: compound 10.0 µM
MINK1 (human) = MINK1 (human) (UniProt Q8N4C8); conditions: compound 10.0 µM
MYLK3 (human) = MYLK3 (human) (UniProt Q32MK0); conditions: compound 10.0 µM
NEK2 (human) = NEK2 (human) (UniProt P51955); conditions: compound 10.0 µM
PDGFRB (human) = PDGFRB (human) (UniProt P09619); conditions: compound 10.0 µM
PHKG2 (human) = PHKG2 (human) (UniProt P15735); conditions: compound 10.0 µM
PIP4K2B (human) = PIP4K2B (human) (UniProt P78356); conditions: compound 10.0 µM
RIOK1 (human) = RIOK1 (human) (UniProt Q9BRS2); conditions: compound 10.0 µM
RIOK2 (human) = RIOK2 (human) (UniProt Q9BVS4); conditions: compound 10.0 µM
RIPK4 (human) = RIPK4 (human) (UniProt P57078); conditions: compound 10.0 µM
RPS6KA5 KD2 (human) = RPS6KA5 KD2 (human) (UniProt O75582); conditions: compound 10.0 µM
SRPK3 (human) = SRPK3 (human) (UniProt Q9UPE1); conditions: compound 10.0 µM
STK16 (human) = STK16 (human) (UniProt O75716); conditions: compound 10.0 µM
STK17A (human) = STK17A (human) (UniProt Q9UEE5); conditions: for kinase still bound, per cent of control: compound 10.0 µM
STK24 (human) = STK24 (human) (UniProt Q9Y6E0); conditions: compound 10.0 µM
TAOK3 (human) = TAOK3 (human) (UniProt Q9H2K8); conditions: compound 10.0 µM
TGFBR2 (human) = TGFBR2 (human) (UniProt P37173); conditions: compound 10.0 µM
TNK1 (human) = TNK1 (human) (UniProt Q13470); conditions: compound 10.0 µM
Sequence of TNK1 (human) (Q13470 whole entry, looked up): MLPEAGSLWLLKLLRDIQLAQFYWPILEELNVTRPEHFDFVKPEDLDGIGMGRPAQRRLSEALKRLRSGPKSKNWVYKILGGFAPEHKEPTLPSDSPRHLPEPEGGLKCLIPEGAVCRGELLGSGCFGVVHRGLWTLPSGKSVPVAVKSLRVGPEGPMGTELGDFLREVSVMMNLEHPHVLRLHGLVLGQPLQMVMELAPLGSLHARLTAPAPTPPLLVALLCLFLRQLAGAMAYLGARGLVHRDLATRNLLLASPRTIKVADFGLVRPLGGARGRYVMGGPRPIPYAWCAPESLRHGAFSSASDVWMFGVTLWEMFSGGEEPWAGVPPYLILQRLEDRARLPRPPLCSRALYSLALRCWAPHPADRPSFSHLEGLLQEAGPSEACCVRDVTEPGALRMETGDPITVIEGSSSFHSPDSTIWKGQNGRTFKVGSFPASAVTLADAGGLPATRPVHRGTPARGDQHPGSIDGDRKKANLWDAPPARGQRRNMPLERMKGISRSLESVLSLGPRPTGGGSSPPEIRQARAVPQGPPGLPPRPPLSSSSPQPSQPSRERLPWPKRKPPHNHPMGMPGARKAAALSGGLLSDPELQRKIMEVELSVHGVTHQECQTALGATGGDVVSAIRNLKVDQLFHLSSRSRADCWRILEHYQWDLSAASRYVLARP

Sequence of DAPK1 (human) (P53355 whole entry, looked up): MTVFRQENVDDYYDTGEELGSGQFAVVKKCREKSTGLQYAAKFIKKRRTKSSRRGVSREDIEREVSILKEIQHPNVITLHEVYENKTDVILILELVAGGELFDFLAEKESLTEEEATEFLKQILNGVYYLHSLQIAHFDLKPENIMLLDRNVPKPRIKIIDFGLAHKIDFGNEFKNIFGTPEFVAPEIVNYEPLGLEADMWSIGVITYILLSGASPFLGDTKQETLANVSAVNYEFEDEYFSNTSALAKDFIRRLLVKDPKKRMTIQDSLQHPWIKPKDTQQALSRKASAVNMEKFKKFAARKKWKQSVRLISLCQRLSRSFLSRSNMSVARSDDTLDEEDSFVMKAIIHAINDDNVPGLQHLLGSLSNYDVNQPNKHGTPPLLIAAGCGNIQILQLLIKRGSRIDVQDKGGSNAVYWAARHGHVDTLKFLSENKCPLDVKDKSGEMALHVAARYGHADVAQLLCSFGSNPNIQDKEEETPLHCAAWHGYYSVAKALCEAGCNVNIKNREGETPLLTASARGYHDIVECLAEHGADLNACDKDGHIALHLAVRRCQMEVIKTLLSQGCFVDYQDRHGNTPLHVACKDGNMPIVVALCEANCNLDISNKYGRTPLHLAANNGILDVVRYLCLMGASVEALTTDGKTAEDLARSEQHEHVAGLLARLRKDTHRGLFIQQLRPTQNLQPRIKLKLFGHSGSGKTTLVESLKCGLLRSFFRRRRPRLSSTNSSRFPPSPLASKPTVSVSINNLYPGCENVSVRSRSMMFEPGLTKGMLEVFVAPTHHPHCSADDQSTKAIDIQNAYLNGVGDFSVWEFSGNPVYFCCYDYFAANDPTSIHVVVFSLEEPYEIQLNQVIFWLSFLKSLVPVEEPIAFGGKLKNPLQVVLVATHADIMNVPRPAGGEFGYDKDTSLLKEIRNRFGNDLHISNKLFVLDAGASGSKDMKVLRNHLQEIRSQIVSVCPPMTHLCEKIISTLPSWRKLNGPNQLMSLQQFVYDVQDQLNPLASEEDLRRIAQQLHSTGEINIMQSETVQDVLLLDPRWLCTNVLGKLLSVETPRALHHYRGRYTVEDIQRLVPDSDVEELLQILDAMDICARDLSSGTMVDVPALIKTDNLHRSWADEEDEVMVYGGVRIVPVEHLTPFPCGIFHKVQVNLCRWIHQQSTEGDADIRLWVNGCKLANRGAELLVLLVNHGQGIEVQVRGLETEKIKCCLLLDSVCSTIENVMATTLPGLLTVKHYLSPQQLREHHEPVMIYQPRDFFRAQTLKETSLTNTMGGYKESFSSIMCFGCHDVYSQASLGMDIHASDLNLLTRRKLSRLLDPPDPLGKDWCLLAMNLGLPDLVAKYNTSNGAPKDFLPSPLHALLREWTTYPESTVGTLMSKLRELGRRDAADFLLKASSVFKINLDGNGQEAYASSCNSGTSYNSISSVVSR
Sequence of STK17A (human) (Q9UEE5 whole entry, looked up): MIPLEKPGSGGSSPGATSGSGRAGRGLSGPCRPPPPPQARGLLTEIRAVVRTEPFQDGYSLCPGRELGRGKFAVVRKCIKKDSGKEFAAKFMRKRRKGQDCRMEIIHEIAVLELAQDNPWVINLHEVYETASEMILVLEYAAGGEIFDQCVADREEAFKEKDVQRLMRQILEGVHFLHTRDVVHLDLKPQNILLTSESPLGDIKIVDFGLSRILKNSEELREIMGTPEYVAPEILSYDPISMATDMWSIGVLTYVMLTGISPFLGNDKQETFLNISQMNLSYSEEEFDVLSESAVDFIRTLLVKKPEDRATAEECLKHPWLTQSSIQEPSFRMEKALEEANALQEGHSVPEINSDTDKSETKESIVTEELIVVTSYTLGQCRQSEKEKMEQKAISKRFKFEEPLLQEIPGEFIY
Sequence of CLK3 (human) (P49761 whole entry, looked up): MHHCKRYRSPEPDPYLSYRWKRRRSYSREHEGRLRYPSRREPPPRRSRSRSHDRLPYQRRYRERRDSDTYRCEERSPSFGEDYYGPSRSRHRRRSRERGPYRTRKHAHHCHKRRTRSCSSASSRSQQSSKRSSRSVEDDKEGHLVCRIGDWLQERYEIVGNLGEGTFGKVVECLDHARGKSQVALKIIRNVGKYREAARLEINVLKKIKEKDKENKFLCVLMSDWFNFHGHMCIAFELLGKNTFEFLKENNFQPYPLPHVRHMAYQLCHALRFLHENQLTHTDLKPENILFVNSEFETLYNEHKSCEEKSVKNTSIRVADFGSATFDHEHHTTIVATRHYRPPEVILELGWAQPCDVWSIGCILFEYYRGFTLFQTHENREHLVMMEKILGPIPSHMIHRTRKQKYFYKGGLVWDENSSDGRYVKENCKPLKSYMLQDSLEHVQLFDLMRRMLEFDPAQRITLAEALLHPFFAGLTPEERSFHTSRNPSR
Sequence of RIOK2 (human) (Q9BVS4 whole entry, looked up): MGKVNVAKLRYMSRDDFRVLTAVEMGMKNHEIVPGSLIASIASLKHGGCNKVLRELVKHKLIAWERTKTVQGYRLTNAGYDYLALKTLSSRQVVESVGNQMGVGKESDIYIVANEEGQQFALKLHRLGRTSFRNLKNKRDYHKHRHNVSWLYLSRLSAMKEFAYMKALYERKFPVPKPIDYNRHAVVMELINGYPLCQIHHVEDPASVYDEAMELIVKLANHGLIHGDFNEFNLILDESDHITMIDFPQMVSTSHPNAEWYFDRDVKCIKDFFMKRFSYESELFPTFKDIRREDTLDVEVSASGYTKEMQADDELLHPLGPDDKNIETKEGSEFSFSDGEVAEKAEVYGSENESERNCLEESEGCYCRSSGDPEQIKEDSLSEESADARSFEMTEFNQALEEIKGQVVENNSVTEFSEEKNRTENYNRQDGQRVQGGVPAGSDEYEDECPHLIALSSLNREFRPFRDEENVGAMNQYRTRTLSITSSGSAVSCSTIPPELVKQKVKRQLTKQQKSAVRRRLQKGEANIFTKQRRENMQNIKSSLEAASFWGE
Sequence of PHKG2 (human) (P15735 whole entry, looked up): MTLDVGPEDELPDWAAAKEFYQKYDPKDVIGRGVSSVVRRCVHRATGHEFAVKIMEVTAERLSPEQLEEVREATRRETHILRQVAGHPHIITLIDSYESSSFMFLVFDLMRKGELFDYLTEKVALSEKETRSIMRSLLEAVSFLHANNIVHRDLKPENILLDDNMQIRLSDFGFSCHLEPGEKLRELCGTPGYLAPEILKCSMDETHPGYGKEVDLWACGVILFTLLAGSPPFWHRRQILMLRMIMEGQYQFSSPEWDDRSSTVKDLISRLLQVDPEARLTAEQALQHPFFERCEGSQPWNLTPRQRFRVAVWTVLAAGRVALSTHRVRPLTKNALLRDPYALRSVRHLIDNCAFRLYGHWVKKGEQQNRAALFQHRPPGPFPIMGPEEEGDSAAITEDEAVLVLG
Sequence of RIPK4 (human) (P57078 whole entry, looked up): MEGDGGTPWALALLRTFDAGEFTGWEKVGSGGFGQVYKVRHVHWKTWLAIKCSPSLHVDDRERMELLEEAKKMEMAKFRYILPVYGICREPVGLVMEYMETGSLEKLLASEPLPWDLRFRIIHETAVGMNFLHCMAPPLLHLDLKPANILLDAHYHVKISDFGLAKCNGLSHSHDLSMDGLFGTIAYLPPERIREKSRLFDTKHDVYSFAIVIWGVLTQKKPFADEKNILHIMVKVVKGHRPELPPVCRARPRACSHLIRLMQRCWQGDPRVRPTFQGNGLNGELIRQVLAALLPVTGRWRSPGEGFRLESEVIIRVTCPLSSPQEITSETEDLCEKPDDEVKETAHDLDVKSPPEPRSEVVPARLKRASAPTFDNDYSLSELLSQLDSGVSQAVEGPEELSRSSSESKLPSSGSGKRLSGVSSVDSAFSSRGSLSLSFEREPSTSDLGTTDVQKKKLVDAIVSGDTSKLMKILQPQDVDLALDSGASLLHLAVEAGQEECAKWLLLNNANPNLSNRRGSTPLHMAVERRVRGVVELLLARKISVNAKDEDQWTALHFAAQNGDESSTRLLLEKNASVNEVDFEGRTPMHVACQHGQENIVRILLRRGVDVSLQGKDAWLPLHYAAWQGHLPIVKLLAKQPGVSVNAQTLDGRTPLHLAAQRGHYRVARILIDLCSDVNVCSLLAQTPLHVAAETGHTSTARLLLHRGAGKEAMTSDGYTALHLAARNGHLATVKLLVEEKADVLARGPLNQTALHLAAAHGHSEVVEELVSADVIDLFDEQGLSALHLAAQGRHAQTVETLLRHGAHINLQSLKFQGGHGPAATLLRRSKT

kinase still bound, per cent of control (ACVR1 (human)): 100%
kinase still bound, per cent of control (ACVR2A (human)): 100%
kinase still bound, per cent of control (ACVR2B (human)): 100%
kinase still bound, per cent of control (AURKC (human)): 74%
kinase still bound, per cent of control (BMPR1B (human)): 100%
kinase still bound, per cent of control (CAMKK1 (human)): 100%
kinase still bound, per cent of control (CDK16 (human)): 100%
kinase still bound, per cent of control (CHUK (human)): 95%
kinase still bound, per cent of control (CLK3 (human)): 95%
kinase still bound, per cent of control (CSNK1G1 (human)): 100%
kinase still bound, per cent of control (CSNK1G3 (human)): 100%
kinase still bound, per cent of control (DAPK1 (human)): 100%
kinase still bound, per cent of control (DCLK3 (human)): 100%
kinase still bound, per cent of control [1]: 100%
kinase still bound, per cent of control (FLT3 (human)): 100%
kinase still bound, per cent of control [2]: 95%
kinase still bound, per cent of control [3]: 100%
kinase still bound, per cent of control [4]: 90%
kinase still bound, per cent of control [5]: 100%
kinase still bound, per cent of control [6]: 100%
kinase still bound, per cent of control (KIT (human)): 76%
kinase still bound, per cent of control [7]: 100%
kinase still bound, per cent of control (MAP2K4 (human)): 61%
kinase still bound, per cent of control (MAP3K5 (human)): 100%
kinase still bound, per cent of control (MAP4K4 (human)): 100%
kinase still bound, per cent of control (MINK1 (human)): 100%
kinase still bound, per cent of control (MYLK3 (human)): 100%
kinase still bound, per cent of control (NEK2 (human)): 100%
kinase still bound, per cent of control (PDGFRB (human)): 76%
kinase still bound, per cent of control (PHKG2 (human)): 78%
kinase still bound, per cent of control (PIP4K2B (human)): 100%
kinase still bound, per cent of control (RIOK1 (human)): 66%
kinase still bound, per cent of control (RIOK2 (human)): 71%
kinase still bound, per cent of control (RIPK4 (human)): 89%
kinase still bound, per cent of control (RPS6KA5 KD2 (human)): 100%
kinase still bound, per cent of control (SRPK3 (human)): 100%
kinase still bound, per cent of control (STK16 (human)): 100%
kinase still bound, per cent of control (STK17A (human)): 100%
kinase still bound, per cent of control (STK24 (human)): 100%
kinase still bound, per cent of control (TAOK3 (human)): 72%
kinase still bound, per cent of control (TGFBR2 (human)): 100%
kinase still bound, per cent of control (TNK1 (human)): 100%
Structure (SMILES): CN1C(=O)c2ccccc2N(C)c2nc(NS(=O)(=O)c3ccc(N)cc3)ncc21

kinase still bound, per cent of control (ACVR1 (human)): 20%
kinase still bound, per cent of control (ACVR2A (human)): 76%
kinase still bound, per cent of control (ACVR2B (human)): 36%
kinase still bound, per cent of control (AURKC (human)): 57%
kinase still bound, per cent of control (BMPR1B (human)): 4.8%
kinase still bound, per cent of control (CAMKK1 (human)): 14%
kinase still bound, per cent of control (CDK16 (human)): 70%
kinase still bound, per cent of control (CHUK (human)): 53%
kinase still bound, per cent of control (CLK3 (human)): 2.8%
kinase still bound, per cent of control (CSNK1G1 (human)): 35%
kinase still bound, per cent of control (CSNK1G3 (human)): 3.2%
Kd (DAPK1 (human)): 9.5 nM
kinase still bound, per cent of control (DAPK1 (human)): 0.35%
kinase still bound, per cent of control (DCLK3 (human)): 2%
kinase still bound, per cent of control [1]: 2.6%
kinase still bound, per cent of control (FLT3 (human)): 91%
kinase still bound, per cent of control [2]: 71%
kinase still bound, per cent of control [3]: 92%
kinase still bound, per cent of control [4]: 67%
kinase still bound, per cent of control [5]: 64%
kinase still bound, per cent of control [6]: 4%
kinase still bound, per cent of control (KIT (human)): 82%
kinase still bound, per cent of control [7]: 70%
kinase still bound, per cent of control (MAP2K4 (human)): 57%
kinase still bound, per cent of control (MAP3K5 (human)): 100%
kinase still bound, per cent of control (MAP4K4 (human)): 4.9%
kinase still bound, per cent of control (MINK1 (human)): 42%
kinase still bound, per cent of control (MYLK3 (human)): 2.6%
kinase still bound, per cent of control (NEK2 (human)): 13%
kinase still bound, per cent of control (PDGFRB (human)): 67%
kinase still bound, per cent of control (PHKG2 (human)): 6.6%
kinase still bound, per cent of control (PIP4K2B (human)): 1.1%
kinase still bound, per cent of control (RIOK1 (human)): 5%
kinase still bound, per cent of control (RIOK2 (human)): 66%
kinase still bound, per cent of control (RIPK4 (human)): 100%
kinase still bound, per cent of control (RPS6KA5 KD2 (human)): 59%
kinase still bound, per cent of control (SRPK3 (human)): 6%
kinase still bound, per cent of control (STK16 (human)): 36%
Kd (STK17A (human)): 190 nM
kinase still bound, per cent of control (STK17A (human)): 0.05%
kinase still bound, per cent of control (STK24 (human)): 71%
kinase still bound, per cent of control (TAOK3 (human)): 8.6%
kinase still bound, per cent of control (TGFBR2 (human)): 18%
kinase still bound, per cent of control (TNK1 (human)): 100%
Structure (SMILES): O=C1NC(=O)/C(=C/c2c[nH]c(=O)c(-c3ccc(N4CCNCC4)nc3)c2)S1

— the kinase profiling compilation of Christmann-Franck et al. (2016)
